Measured values: patent publication EP0745595A1, “3-(3-Aryloxyphenyl)-1-(substituted methyl)-s-triazine-2,4,6-oxo or thiotrione herbicidal agents” (American Cyanamid Company, priority 1995, dated 1996)

Legend:
Format in all cases: in vivo
[1] = test system: ORYZA SATIVA, L. TEBONNET; assay: Rice tolerance to post-transplant applications under flooded paddy conditions, ORYSAT (Rice, Tebonnet); details: post-transplant rice, 3-4 weeks after treatment
Procedure, shortened: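 Greenhouse pots of silt loam, each with two transplanted ten-day-old seedlings, are held under 1.5 to 3 cm of standing water. Three days later the compound is applied to the flooded surface at about 0.5, 0.25, 0.125 or 0.063 kg/ha. Damage is scored visually 0-9 after 3-4 weeks.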

GALIUM APARINE = assay: Preemergence herbicidal evaluation, GALAP (Galium); details: rated four to five weeks after treatment
Text: (§1) Results of herbicide evaluation are expressed on a rating scale (0-9). The scale is based upon a visual observation of plant stand, vigor, malformation, size, chlorosis and overall plant appearance as compared with a control.
(§2) The preemergence herbicidal activity of the test compounds of the present invention is exemplified by the following tests in which the seeds of a variety of monocotyledonous and dicotyledonous plants are separately mixed with potting soil and planted on top of approximately one inch of soil in separate pint cups. […] The treated cups are then placed on greenhouse benches, watered and cared for in accordance with conventional greenhouse procedures. From four to five weeks after treatment, the tests are terminated and each cup is examined and rated according to the rating system provided in Example 40.
(§3) The compounds evaluated are reported by compound number given in Example 40.

[2] = test system: CYPERUS SEROTINUS, ROTTB.; assay: Preemergence weed control under flooded paddy conditions, CYPSE (Flatsedge); details: preemergence, 3-4 weeks after treatment
Procedure, shortened: (§4)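 In undrained pots of silt loam flooded to 1.5-3 cm, compounds are pipetted into the water before emergence at the equivalent of about 0.5, 0.25, 0.125 and 0.063 kg/ha. Plants are scored 0-9 for stand, vigor, malformation, size and chlorosis at test end (3-4 weeks).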

SAGITTARIA PYGMAEA, L. = assay: Preemergence weed control under flooded paddy conditions, SAGPY (Arrowhead (Pygmaea)); details: preemergence, 3-4 weeks after treatment
Procedure, shortened: as §4

CASSIA OBTUSIFOLIA, L. [3] = assay: Preemergence herbicidal evaluation, CASOB (Sicklepod); details: rated four to five weeks after treatment
Procedure, shortened: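 Preemergence herbicidal activity against sicklepod was assessed by planting seed mixed with potting soil atop about one inch of soil in pint cups. After treatment the cups were watered and handled per standard greenhouse practice. Tests ended four to five weeks later, with plant stand, vigor, malformation, size, chlorosis and overall appearance scored 0-9 relative to a control.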

[4] = test system: TRITICUM AESTIVUM, CV. APOLLO; assay: Preemergence herbicidal evaluation, TRZAWO (Wheat, Winter, CV. APOLLO); details: rated four to five weeks after treatment
Text: as §1, §2, §3

[5] = test system: AMBROSIA ARTEMISIIFOLIA, L.; assay: Preemergence herbicidal evaluation, AMBEL (Ragweed, Common); details: rated four to five weeks after treatment
Text: as §1, §2, §3

IPOMOEA SPP. [6] = assay: Preemergence herbicidal evaluation, IPOSS (Morningglory spp.); details: rated four to five weeks after treatment
Text: as §1, §2, §3

[7] = test system: TRITICUM AESTIVUM, CV. APOLLO; assay: Postemergence herbicidal evaluation, TRZAWO (Wheat, Winter, CV. APOLLO)
Method: In the tests, seedling plants are grown in jiffy flats for about two weeks. The test compounds are dispersed in 50/50 acetone/water mixtures containing 0.5% TWEEN®20, a polyoxyethylene sorbitan monolaurate surfactant of Atlas Chemical Industries, […] through a spray nozzle operating at 40 psi for a predetermined time. After spraying, the plants are placed on greenhouse benches and are cared for in the usual manner, commensurate with conventional greenhouse practices. From four to five weeks after treatment, the seedling plants are examined and rated according to the rating system set forth below. Where more than one test is involved for a given compound, the data are averaged.
(§5) Plant species employed in these evaluations are reported by header abbreviation, common name and scientific name.
as §1

CHENOPODIUM ALBUM, L. [8] = assay: Postemergence herbicidal evaluation, CHEAL (Lambsquarters, Common)
Procedure, shortened: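 Postemergence herbicidal activity on Chenopodium album was tested by spraying two-week-old seedlings grown in jiffy flats with compound in acetone/water (50/50) plus 0.5% TWEEN®20, using a 40 psi nozzle. Four to five weeks after treatment, stand, vigor, malformation, size, chlorosis and overall appearance were scored 0-9 relative to controls, with repeat tests averaged.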

CASSIA OBTUSIFOLIA, L. [9] = assay: Postemergence herbicidal evaluation, CASOB (Sicklepod); set-up: key to CASOB rating / Herbicidal effect rating, CASOB / CASOB: 0-9 visual rating scale vs untreated control
Procedure, shortened: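 Postemergence foliar spray at approximately 0.125–0.500 kg/ha onto two-week seedlings; greenhouse hold, then 0–9 visual injury rating after 4–5 weeks.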

[10] = test system: ABUTILON THEOPHRASTI, MEDIC.; assay: Postemergence herbicidal evaluation, ABUTH (Velvetleaf)
Procedure, shortened: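 This postemergence herbicide test used two-week-old velvetleaf seedlings grown in jiffy flats. Each compound was sprayed at 40 psi as a dispersion in 50/50 acetone/water with 0.5% TWEEN®20 surfactant. Plants then received routine greenhouse care. After four to five weeks, injury was scored visually on a 0-9 scale against a control, and replicate tests were averaged.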

[11] = test system: SETARIA VIRIDIS, (L) BEAU; assay: Postemergence herbicidal evaluation, SETVI (Foxtail, Green); set-up: key to SETVI rating / Herbicidal effect rating, SETVI / SETVI: 0-9 visual rating scale vs untreated control
Procedure, shortened: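 Each value is a 0–9 visual rating of plant appearance compared with control, recorded 4–5 weeks after a 0.125–0.500 kg/ha spray, with multiple tests averaged.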

CHENOPODIUM ALBUM, L. [12] = assay: Preemergence herbicidal evaluation, CHEAL (Lambsquarters, Common); details: rated four to five weeks after treatment
Procedure, shortened: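 Seeds mixed with potting soil were planted on about one inch of soil in cups, then sprayed with aqueous acetone solution of test compound at about 0.125 to 0.50 kg per hectare. Plants grown under greenhouse conditions; visual rating on a 0-9 scale versus untreated control at 4-5 weeks.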

ZEA MAYS L. [13] = assay: Preemergence herbicidal evaluation, ZEAMX (Corn, Field); details: rated four to five weeks after treatment
Procedure, shortened: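 Preemergence herbicidal activity on field corn: seeds in potting soil were sown atop roughly one inch of soil in separate pint cups, treated, and grown under standard greenhouse care. Four to five weeks post-treatment, stand, vigor, malformation, size, chlorosis and overall appearance were compared with a control and scored 0-9.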

IPOMOEA SPP. [14] = assay: Postemergence herbicidal evaluation, IPOSS (Morningglory spp.)
Procedure, shortened: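 In this greenhouse postemergence herbicide test on Ipomoea spp. (morningglory), compounds in 50/50 acetone/water with 0.5% TWEEN®20 were sprayed at 40 psi onto seedlings about two weeks old grown in jiffy flats. After four to five weeks, injury was scored on a 0-9 scale covering stand, vigor, malformation, size, chlorosis and overall appearance versus control, with repeat tests averaged.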

[15] = test system: AMBROSIA ARTEMISIIFOLIA, L.; assay: Postemergence herbicidal evaluation, AMBEL (Ragweed, Common)
Procedure, shortened: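 Postemergence herbicidal activity on AMBEL (common ragweed) was assessed on two-week-old seedlings grown in jiffy flats. Treatment solutions of 50/50 acetone/water with 0.5% TWEEN®20 surfactant were sprayed at 40 psi. After four to five weeks in the greenhouse, plants were scored 0-9 against a control for stand, vigor, malformation, size, chlorosis and overall appearance, with multiple tests averaged.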

ZEA MAYS L. [16] = assay: Postemergence herbicidal evaluation, ZEAMX (Corn, Field)
Method: In the tests, seedling plants are grown in jiffy flats for about two weeks. The test compounds are dispersed in 50/50 acetone/water mixtures containing 0.5% TWEEN®20, a polyoxyethylene sorbitan monolaurate surfactant of Atlas Chemical Industries, […] to the plants through a spray nozzle operating at 40 psi for a predetermined time. After spraying, the plants are placed on greenhouse benches and are cared for in the usual manner, commensurate with conventional greenhouse practices. From four to five weeks after treatment, the seedling plants are examined and rated according to the rating system set forth below. Where more than one test is involved for a given compound, the data are averaged.
as §5, §1

Cn1c(=O)n(CC(=O)OC(C)(C)C)c(=O)n(-c2cc(Oc3ccc(C(F)(F)F)cc3Cl)ccc2Cl)c1=O [Compound 40, Tert-butyl 3-{[2-chloro-5-(2-chloro-α,α,α-trifluoro-p-tolyl)oxy]phenyl}tetrahydro-5-methyl-2,4,6-trioxo-s-triazine-1(2H)-acetate]
Herbicidal effect rating, ORYSAT ([1]; 0.063 kg/ha): 0.5
Herbicidal effect rating, ORYSAT ([1]; 0.125 kg/ha): 0.5
Herbicidal effect rating, ORYSAT ([1]; 0.250 kg/ha): 1.5
Herbicidal effect rating, ORYSAT ([1]; 0.500 kg/ha): 1.5
GALAP herbicidal rating (GALIUM APARINE; Rate 0.125 kg/ha): 4.5
GALAP herbicidal rating (GALIUM APARINE; Rate 0.250 kg/ha): 4.5
Herbicidal effect rating, CYPSE ([2]; 0.063 kg/ha): 0.0
Herbicidal effect rating, CYPSE ([2]; 0.125 kg/ha): 0.0
Herbicidal effect rating, CYPSE ([2]; 0.250 kg/ha): 0.0
Herbicidal effect rating, CYPSE ([2]; 0.500 kg/ha): 0.0
Herbicidal effect rating, SAGPY (SAGITTARIA PYGMAEA, L.; 0.063 kg/ha): 0.0
Herbicidal effect rating, SAGPY (SAGITTARIA PYGMAEA, L.; 0.125 kg/ha): 0.0
Herbicidal effect rating, SAGPY (SAGITTARIA PYGMAEA, L.; 0.250 kg/ha): 0.0
Herbicidal effect rating, SAGPY (SAGITTARIA PYGMAEA, L.; 0.500 kg/ha): 0.0
CASOB herbicidal rating (CASSIA OBTUSIFOLIA, L. [3]; Rate 0.125 kg/ha): 1.0
CASOB herbicidal rating (CASSIA OBTUSIFOLIA, L. [3]; Rate 0.250 kg/ha): 1.0
TRZAWO herbicidal rating ([4]; Rate 0.125 kg/ha): 0.0
TRZAWO herbicidal rating ([4]; Rate 0.250 kg/ha): 0.0
AMBEL herbicidal rating ([5]; Rate 0.125 kg/ha): 0.0
AMBEL herbicidal rating ([5]; Rate 0.250 kg/ha): 0.0
IPOSS herbicidal rating (IPOMOEA SPP. [6]; Rate 0.125 kg/ha): 0.5
IPOSS herbicidal rating (IPOMOEA SPP. [6]; Rate 0.250 kg/ha): 0.5

COC(=O)Cn1c(=O)n(C)c(=O)n(-c2cc(Oc3ncc(C(F)(F)F)cc3Cl)ccc2Br)c1=O [Compound 45]
TRZAWO rating ([7]; Rate 0.125 kg/ha): 9.0
TRZAWO rating ([7]; Rate 0.250 kg/ha): 9.0
TRZAWO rating ([7]; Rate 0.500 kg/ha): 9.0
Herbicidal effect rating, ORYSAT ([1]; 0.063 kg/ha): 2.0
Herbicidal effect rating, ORYSAT ([1]; 0.125 kg/ha): 2.0
Herbicidal effect rating, ORYSAT ([1]; 0.250 kg/ha): 4.0
Herbicidal effect rating, ORYSAT ([1]; 0.500 kg/ha): 6.0
CHEAL rating (CHENOPODIUM ALBUM, L. [8]; Rate 0.125 kg/ha): 9.0
CHEAL rating (CHENOPODIUM ALBUM, L. [8]; Rate 0.250 kg/ha): 9.0
CHEAL rating (CHENOPODIUM ALBUM, L. [8]; Rate 0.500 kg/ha): 9.0
CASOB rating (CASSIA OBTUSIFOLIA, L. [9]; Rate 0.125 kg/ha): 9.0
CASOB rating (CASSIA OBTUSIFOLIA, L. [9]; Rate 0.250 kg/ha): 9.0
CASOB rating (CASSIA OBTUSIFOLIA, L. [9]; Rate 0.500 kg/ha): 9.0
ABUTH rating ([10]; Rate 0.125 kg/ha): 9.0
ABUTH rating ([10]; Rate 0.250 kg/ha): 9.0
ABUTH rating ([10]; Rate 0.500 kg/ha): 9.0
SETVI rating ([11]; Rate 0.125 kg/ha): 9.0
SETVI rating ([11]; Rate 0.250 kg/ha): 9.0
SETVI rating ([11]; Rate 0.500 kg/ha): 9.0
CHEAL herbicidal rating (CHENOPODIUM ALBUM, L. [12]; Rate 0.125 kg/ha): 9.0
CHEAL herbicidal rating (CHENOPODIUM ALBUM, L. [12]; Rate 0.250 kg/ha): 9.0
CHEAL herbicidal rating (CHENOPODIUM ALBUM, L. [12]; Rate 0.500 kg/ha): 9.0
ZEAMX herbicidal rating (ZEA MAYS L. [13]; Rate 0.125 kg/ha): 0.0
ZEAMX herbicidal rating (ZEA MAYS L. [13]; Rate 0.250 kg/ha): 0.0
ZEAMX herbicidal rating (ZEA MAYS L. [13]; Rate 0.500 kg/ha): 0.0
IPOSS rating (IPOMOEA SPP. [14]; Rate 0.125 kg/ha): 9.0
IPOSS rating (IPOMOEA SPP. [14]; Rate 0.250 kg/ha): 9.0
IPOSS rating (IPOMOEA SPP. [14]; Rate 0.500 kg/ha): 9.0
AMBEL rating ([15]; Rate 0.125 kg/ha): 9.0
AMBEL rating ([15]; Rate 0.250 kg/ha): 9.0
AMBEL rating ([15]; Rate 0.500 kg/ha): 9.0
CASOB herbicidal rating (CASSIA OBTUSIFOLIA, L. [3]; Rate 0.125 kg/ha): 0.0
CASOB herbicidal rating (CASSIA OBTUSIFOLIA, L. [3]; Rate 0.250 kg/ha): 0.0
CASOB herbicidal rating (CASSIA OBTUSIFOLIA, L. [3]; Rate 0.500 kg/ha): 0.0
AMBEL herbicidal rating ([5]; Rate 0.125 kg/ha): 0.0
AMBEL herbicidal rating ([5]; Rate 0.250 kg/ha): 0.0
AMBEL herbicidal rating ([5]; Rate 0.500 kg/ha): 0.0
IPOSS herbicidal rating (IPOMOEA SPP. [6]; Rate 0.125 kg/ha): 0.0
IPOSS herbicidal rating (IPOMOEA SPP. [6]; Rate 0.250 kg/ha): 0.0
IPOSS herbicidal rating (IPOMOEA SPP. [6]; Rate 0.500 kg/ha): 0.0
ZEAMX rating (ZEA MAYS L. [16]; Rate 0.125 kg/ha): 9.0
ZEAMX rating (ZEA MAYS L. [16]; Rate 0.250 kg/ha): 9.0
ZEAMX rating (ZEA MAYS L. [16]; Rate 0.500 kg/ha): 9.0
